IC50 data for 20 compounds are collected here from US20250270213A1, “PI3Ka INHIBITORS” (Synnovation Therapeutics, Inc., priority 2022, published 2025).

For the experiment, the system named is T47D (PIK3CA H1047R) cells. As to the kind of experiment: pS473 AKT assay with 2.5% FBS, T47D cells. The settings on record: Homo sapiens, pSer473 AKT, DMEM with 2.5% FBS, 2 h treatment, read-out: T47D_IC50. The experiment is classed as cell-based. On the procedure: Example B. pS473 AKT Assay Protocol with 2.5% FBS
T47D (PIK3CA H1047R) cells were cultured using 10-cm petri dishes with recommended medium plus 10% fetal bovine serum. One day before the assay, cells were seeded in 96-well plates. After overnight incubation, the medium was changed to DMEM with 2.5% fetal bovine serum (FBS) and the cells were treated with different concentrations of the compounds for 2 h. Cells were then fixed using 4% paraformaldehyde at room temperature for 20 min. Aspirate 4% paraformaldehyde, and wash cells using 1× regular phosphate buffered saline 3 times, 5 min each. Aspirate any residual phosphate buffered saline and block cells using 10% goat serum containing 1% bovine serum albumin and 0.3% Triton X-100 at room temperature for 1 h. Without any additional washing, primary antibodies (rabbit anti-pSer473 AKT) were diluted using blocking buffer and added at a final volume of 50 microliter per well. Keep assay plates with primary antibodies overnight at 4° C. Wash cells using 1× regular phosphate buffered saline 3 times, 5 min each. After the final wash, incubate cells with horseradish peroxidase-conjugated secondary antibodies (goat Anti-rabbit IgG) diluted using the same blocking buffer at room temperature for 1 h. Wash cells thoroughly using 1× regular phosphate buffered saline 3 times, 5 min each. Aspirate any residual phosphate buffered saline. Add Super-Signal ELISA Pico Chemiluminescent Substrate at a final volume of 100 microliter per well. Read plates on i3x Multi-Mode Microplate Reader and calculate IC50 values using GraphPad Prism software.

Bounds are passed on as bounds.

With `CCc1nn2c3c4c(cc(C)cc4c(=O)n(C)c13)C(Nc1ccc(C)nc1-c1ccncc1)C2` (centres unmarked) [Compound 40, 2-Ethyl-3,6-dimethyl-8-((6-methyl-[2,4′-bipyridin]-3-yl)amino)-8,9-dihydrobenzo[de]pyrazolo[4,5,1-ij][1,7]naphthyridin-4(3H)-one], the IC50 is less than 1000 nM.

For `CCn1ncc2c3c(C(C)Nc4ccc(Cl)nc4-c4ccc(=O)n(C)c4)cc(C)cc3c(=O)n(C)c21` (centres unmarked) [Compound 41, 9-(1-((6-chloro-1′-methyl-6′-oxo-1′,6′-dihydro-[2,3′-bipyridin]-3-yl)amino)ethyl)-3-ethyl-4,7-dimethyl-3,4-dihydro-5H-pyrazolo[3,4-c]isoquinolin-5-one], the IC50 was less than 1000 nM.

`CCn1ncc2c3c(C(C)Nc4ccc(Cl)nc4-c4ccc(C(=O)NC)c(F)c4)cc(C)cc3c(=O)n(C)c21` (centres unmarked) [Compound 42, 4-(6-chloro-3-((1-(3-ethyl-4,7-dimethyl-5-oxo-4,5-dihydro-3H-pyrazolo[3,4-c]isoquinolin-9-yl)ethyl)amino)pyridin-2-yl)-2-fluoro-N-methylbenzamide]: the IC50 was less than 1000 nM.

For `CCn1ncc2c3c(C(C)Nc4ccc(Cl)nc4-c4ccncn4)cc(C)cc3c(=O)n(C)c21` (centres unmarked) [Compound 43, 9-(1-((6-chloro-2-(pyrimidin-4-yl)pyridin-3-yl)amino)ethyl)-3-ethyl-4,7-dimethyl-3,4-dihydro-5H-pyrazolo[3,4-c]isoquinolin-5-one], the IC50 is less than 1000 nM.

Regarding `CCn1ncc2c3c(C(C)Nc4ccc(Cl)nc4-c4cncnc4)cc(C)cc3c(=O)n(C)c21` (centres unmarked) [Compound 44, 9-(1-((6-chloro-2-(pyrimidin-5-yl)pyridin-3-yl)amino)ethyl)-3-ethyl-4,7-dimethyl-3,4-dihydro-5H-pyrazolo[3,4-c]isoquinolin-5-one], the IC50 is less than 1000 nM. In the case of `CCn1ncc2c3c(C(C)Nc4ccc(Cl)nc4-c4ccncc4F)cc(C)cc3c(=O)n(C)c21` (centres unmarked) [Compound 45, 9-(1-((6-chloro-3′-fluoro-[2,4′-bipyridin]-3-yl)amino)ethyl)-3-ethyl-4,7-dimethyl-3,4-dihydro-5H-pyrazolo[3,4-c]isoquinolin-5-one], the IC50 is less than 1000 nM. For `CCn1ncc2c3c(C(C)Nc4ccc(Cl)nc4-c4ccc(C(=O)N(C)C)cc4)cc(C)cc3c(=O)n(C)c21` (centres unmarked) [Compound 46, 4-(6-chloro-3-((1-(3-ethyl-4,7-dimethyl-5-oxo-4,5-dihydro-3H-pyrazolo[3,4-c]isoquinolin-9-yl)ethyl)amino)pyridin-2-yl)-N,N-dimethylbenzamide] the value was less than 1000 nM; for `CCn1ncc2c3c(C(C)Nc4ccc(Cl)nc4-c4ccc(C(=O)O)cc4)cc(C)cc3c(=O)n(C)c21` (centres unmarked) [Compound 47, 4-(6-chloro-3-((1-(3-ethyl-4,7-dimethyl-5-oxo-4,5-dihydro-3H-pyrazolo[3,4-c]isoquinolin-9-yl)ethyl)amino)pyridin-2-yl) benzoic acid], less than 1000 nM; for `CCn1ncc2c3c(C(C)Nc4ccc(Cl)nc4-c4ccnn4C)cc(C)cc3c(=O)n(C)c21` (centres unmarked) [Compound 48, 9-(1-((6-chloro-2-(1-methyl-1H-pyrazol-5-yl)pyridin-3-yl)amino)ethyl)-3-ethyl-4,7-dimethyl-3,4-dihydro-5H-pyrazolo[3,4-c]isoquinolin-5-one], less than 1000 nM.

For the compound `CCn1ncc2c3c(C(C)Nc4ccc(Cl)nc4-c4cnn(C)c4C)cc(C)cc3c(=O)n(C)c21` (centres unmarked) [Compound 49, 9-(1-((6-chloro-2-(1,5-dimethyl-1H-pyrazol-4-yl)pyridin-3-yl)amino)ethyl)-3-ethyl-4,7-dimethyl-3,4-dihydro-5H-pyrazolo[3,4-c]isoquinolin-5-one], the IC50 is less than 1000 nM. With `CCn1ncc2c3c(C(C)Nc4ccc(Cl)nc4-c4cnn(C)c4)cc(C)cc3c(=O)n(C)c21` (centres unmarked) [Compound 50, 9-(1-((6-chloro-2-(1-methyl-1H-pyrazol-4-yl)pyridin-3-yl)amino)ethyl)-3-ethyl-4,7-dimethyl-3,4-dihydro-5H-pyrazolo[3,4-c]isoquinolin-5-one], the IC50 is less than 1000 nM. Then `CCn1ncc2c3c(C(C)Nc4ccc(Cl)nc4-c4cn[nH]c4)cc(C)cc3c(=O)n(C)c21` (centres unmarked) [Compound 51, 9-(1-((6-chloro-2-(1H-pyrazol-4-yl)pyridin-3-yl)amino)ethyl)-3-ethyl-4,7-dimethyl-3,4-dihydro-5H-pyrazolo[3,4-c]isoquinolin-5-one], with less than 1000 nM; and `CCn1ncc2c3c(C(C)Nc4ccc(C)nc4-c4cnn(C)c4)cc(C)cc3c(=O)n(C)c21` (centres unmarked) [Compound 52, 3-Ethyl-4,7-dimethyl-9-(1-((6-methyl-2-(1-methyl-1H-pyrazol-4-yl)pyridin-3-yl)amino)ethyl)-3,4-dihydro-5H-pyrazolo[3,4-c]isoquinolin-5-one], with less than 1000 nM; and `CCn1ncc2c3c(C(C)Nc4ccc(C)nc4-c4cn[nH]c4)cc(C)cc3c(=O)n(C)c21` (centres unmarked) [Compound 53, 3-ethyl-4,7-dimethyl-9-(1-((6-methyl-2-(1H-pyrazol-4-yl)pyridin-3-yl)amino)ethyl)-3,4-dihydro-5H-pyrazolo[3,4-c]isoquinolin-5-one], with less than 1000 nM. For `CCn1ncc2c3c(C(C)Nc4ccc(C)nc4-c4ccnn4C)cc(C)cc3c(=O)n(C)c21` (centres unmarked) [Compound 54, 3-ethyl-4,7-dimethyl-9-(1-((6-methyl-2-(1-methyl-1H-pyrazol-5-yl)pyridin-3-yl)amino)ethyl)-3,4-dihydro-5H-pyrazolo[3,4-c]isoquinolin-5-one], the IC50 is less than 1000 nM.

On to `CCn1ncc2c3c(C(C)Nc4ccc(C)nc4-c4ccc(C(=O)NC)c(F)c4)cc(C)cc3c(=O)n(C)c21` (centres unmarked) [Compound 55, 4-(3-((1-(3-ethyl-4,7-dimethyl-5-oxo-4,5-dihydro-3H-pyrazolo[3,4-c]isoquinolin-9-yl)ethyl)amino)-6-methylpyridin-2-yl)-2-fluoro-N-methylbenzamide], for which the IC50 is less than 1000 nM. `CCn1ncc2c3c(C(C)Nc4ccccc4-c4cnn(CCO)c4)cc(C)cc3c(=O)n(C)c21` (centres unmarked) [Compound 56, 3-ethyl-9-(1-((2-(1-(2-hydroxyethyl)-1H-pyrazol-4-yl)phenyl)amino)ethyl)-4,7-dimethyl-3,4-dihydro-5H-pyrazolo[3,4-c]isoquinolin-5-one]: the IC50 is less than 1000 nM. In the case of `CCn1ncc2c3c(C(C)Nc4ccccc4N4CCN(C(C)=O)CC4)cc(C)cc3c(=O)n(C)c21` (centres unmarked) [Compound 57, 9-(1-((2-(4-Acetylpiperazin-1-yl)phenyl)amino)ethyl)-3-ethyl-4,7-dimethyl-3,4-dihydro-5H-pyrazolo[3,4-c]isoquinolin-5-one], the IC50 is less than 1000 nM.

`CCn1ncc2c3c(C(C)Nc4ccccc4N4CCn5cnnc5C4)cc(C)cc3c(=O)n(C)c21` (centres unmarked) [Compound 58, 9-(1-((2-(5,6-Dihydro-[1,2,4]triazolo[4,3-a]pyrazin-7(8H)-yl)phenyl)amino)ethyl)-3-ethyl-4,7-dimethyl-3,4-dihydro-5H-pyrazolo[3,4-c]isoquinolin-5-one]: the IC50 was less than 1000 nM. Turning to `CCn1ncc2c3c(C(C)Nc4ccc(Cl)nc4-c4noc(=O)[nH]4)cc(C)cc3c(=O)n(C)c21` (centres unmarked) [Compound 59, 3-(6-Chloro-3-((1-(3-ethyl-4,7-dimethyl-5-oxo-4,5-dihydro-3H-pyrazolo[3,4-c]isoquinolin-9-yl)ethyl)amino)pyridin-2-yl)-1,2,4-oxadiazol-5(4H)-one], the IC50 was less than 1000 nM.
